From patent publication US12448461B2, “ABCB5 ligands and substrates” (Children's Medical Center Corporation, priority 2018, dated 2025)
One block for each molecule: values may come before it.

Key:
[1] = target: T1, purified recombinant human ABCB5 (Homo sapiens, UniProt Q2M3G0); experiment: Competition ELISA: PIP1, PIP2 or PIP3 binding to ABCB5 with increasing doses of competitor
T1 sequence (Q2M3G0 1-812 isoform Q2M3G0-1): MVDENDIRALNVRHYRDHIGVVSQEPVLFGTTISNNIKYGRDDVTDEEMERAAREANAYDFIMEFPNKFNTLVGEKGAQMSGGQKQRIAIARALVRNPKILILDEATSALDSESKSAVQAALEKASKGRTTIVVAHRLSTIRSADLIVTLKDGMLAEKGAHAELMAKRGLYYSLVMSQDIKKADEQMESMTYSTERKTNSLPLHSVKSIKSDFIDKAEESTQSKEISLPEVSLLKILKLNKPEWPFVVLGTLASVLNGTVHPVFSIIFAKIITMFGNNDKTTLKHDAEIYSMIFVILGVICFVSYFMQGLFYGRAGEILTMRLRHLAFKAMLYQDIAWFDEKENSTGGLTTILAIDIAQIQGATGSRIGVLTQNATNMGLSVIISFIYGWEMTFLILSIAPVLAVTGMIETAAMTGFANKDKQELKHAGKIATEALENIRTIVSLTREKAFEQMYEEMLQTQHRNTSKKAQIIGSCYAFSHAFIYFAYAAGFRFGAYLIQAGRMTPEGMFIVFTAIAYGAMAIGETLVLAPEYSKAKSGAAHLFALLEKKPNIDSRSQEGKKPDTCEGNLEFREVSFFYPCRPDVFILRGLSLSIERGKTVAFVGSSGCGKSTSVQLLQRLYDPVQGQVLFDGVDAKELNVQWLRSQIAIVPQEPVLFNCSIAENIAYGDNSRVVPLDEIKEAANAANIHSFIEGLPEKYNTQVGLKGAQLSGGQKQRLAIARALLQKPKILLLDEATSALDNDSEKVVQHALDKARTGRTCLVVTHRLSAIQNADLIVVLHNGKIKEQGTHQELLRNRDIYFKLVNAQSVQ
Procedure: ELISA plates coated with PIP1, PIP2 or PIP3 were incubated with purified recombinant human ABCB5 (P-glycoprotein ABCB5 [Homo sapiens] GenBank: AAO73470.1) for binding, in the absence or presence of increasing doses of PtdIns-(1,2-dioctanoyl), a synthetic analog of natural phosphatidylinositol (PtdIns) containing C8:0 fatty acids at the sn-1 and sn-2 positions (CAS Registry Number 899827-36-2).

[2] = system: Tyr::CreER; BrafCA; Ptenlox/lox genetic mouse melanoma model; experiment: Vemurafenib treatment in 4-HT inducible genetic mouse melanoma model on ABCB5 WT or KO background; format: in vivo; details: vemurafenib-treated ABCB5 WT mice
ABCB5 [3] = experiment: Surface plasmon resonance (SPR) binding and antibody competition on PIP1, PIP2 and PIP3 surfaces
ABCB5 [4] = target: T2, ABCB5 (Homo sapiens, UniProt Q2M3G0); experiment: Immunoprecipitation with anti-PIP2 or anti-PIP3 antibody from ABCB5-expressing melanoma cells, ABCB5 immunoblot; format: binding
T2 construct: Immunoprecipitation from human ABCB5-expressing melanoma cells; endogenous in cells
T2 sequence (Q2M3G0 1-1257): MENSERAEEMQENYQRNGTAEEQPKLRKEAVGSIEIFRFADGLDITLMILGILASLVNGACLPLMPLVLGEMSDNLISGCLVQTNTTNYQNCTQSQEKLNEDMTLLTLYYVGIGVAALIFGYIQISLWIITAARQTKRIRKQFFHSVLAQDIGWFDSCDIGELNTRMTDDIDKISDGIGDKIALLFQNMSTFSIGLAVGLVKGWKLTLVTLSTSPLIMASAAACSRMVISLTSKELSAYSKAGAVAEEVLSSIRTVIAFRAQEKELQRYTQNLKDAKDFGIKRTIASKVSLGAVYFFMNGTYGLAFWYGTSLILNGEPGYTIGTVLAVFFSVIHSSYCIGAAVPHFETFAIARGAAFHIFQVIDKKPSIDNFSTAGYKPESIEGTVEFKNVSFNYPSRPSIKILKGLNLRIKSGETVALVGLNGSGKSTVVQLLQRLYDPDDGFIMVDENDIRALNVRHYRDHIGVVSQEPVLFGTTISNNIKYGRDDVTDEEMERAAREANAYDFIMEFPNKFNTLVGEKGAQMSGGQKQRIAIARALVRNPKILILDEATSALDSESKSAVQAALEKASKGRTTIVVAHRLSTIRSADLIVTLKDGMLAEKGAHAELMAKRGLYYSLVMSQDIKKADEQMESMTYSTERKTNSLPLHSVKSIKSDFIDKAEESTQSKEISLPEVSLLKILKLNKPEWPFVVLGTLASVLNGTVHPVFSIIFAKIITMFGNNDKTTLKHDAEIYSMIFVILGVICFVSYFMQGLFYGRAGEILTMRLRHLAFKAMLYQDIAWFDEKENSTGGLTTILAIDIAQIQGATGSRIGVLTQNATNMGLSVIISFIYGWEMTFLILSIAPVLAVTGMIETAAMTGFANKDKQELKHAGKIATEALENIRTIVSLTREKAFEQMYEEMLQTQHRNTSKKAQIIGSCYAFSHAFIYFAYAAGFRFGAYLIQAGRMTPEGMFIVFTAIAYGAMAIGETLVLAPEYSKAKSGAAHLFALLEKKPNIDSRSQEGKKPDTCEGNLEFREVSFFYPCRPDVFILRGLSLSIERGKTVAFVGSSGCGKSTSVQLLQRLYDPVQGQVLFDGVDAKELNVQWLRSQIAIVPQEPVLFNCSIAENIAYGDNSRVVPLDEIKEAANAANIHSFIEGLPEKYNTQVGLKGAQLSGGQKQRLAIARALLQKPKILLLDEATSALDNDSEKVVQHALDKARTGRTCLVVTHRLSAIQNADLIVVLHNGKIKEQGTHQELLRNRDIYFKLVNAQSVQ
Text: PIP2 pulldown was confirmed using immunoblotting with PIP2 antibody in FIG. 1A (lower panel).

murine Abcb5 = target: T3, murine Abcb5 (Mus musculus, UniProt B5X0E4); experiment: ELISA: plates coated with PIP1, PIP2 or PIP3 incubated with wildtype mouse Abcb5-expressing skin tissue; format: binding; details: absent in Abcb5 knockout tissue
T3 construct: wildtype mouse Abcb5-expressing skin tissue; from tissue; host or cells: wild-type mouse skin tissue
T3 sequence (B5X0E4 1-1255): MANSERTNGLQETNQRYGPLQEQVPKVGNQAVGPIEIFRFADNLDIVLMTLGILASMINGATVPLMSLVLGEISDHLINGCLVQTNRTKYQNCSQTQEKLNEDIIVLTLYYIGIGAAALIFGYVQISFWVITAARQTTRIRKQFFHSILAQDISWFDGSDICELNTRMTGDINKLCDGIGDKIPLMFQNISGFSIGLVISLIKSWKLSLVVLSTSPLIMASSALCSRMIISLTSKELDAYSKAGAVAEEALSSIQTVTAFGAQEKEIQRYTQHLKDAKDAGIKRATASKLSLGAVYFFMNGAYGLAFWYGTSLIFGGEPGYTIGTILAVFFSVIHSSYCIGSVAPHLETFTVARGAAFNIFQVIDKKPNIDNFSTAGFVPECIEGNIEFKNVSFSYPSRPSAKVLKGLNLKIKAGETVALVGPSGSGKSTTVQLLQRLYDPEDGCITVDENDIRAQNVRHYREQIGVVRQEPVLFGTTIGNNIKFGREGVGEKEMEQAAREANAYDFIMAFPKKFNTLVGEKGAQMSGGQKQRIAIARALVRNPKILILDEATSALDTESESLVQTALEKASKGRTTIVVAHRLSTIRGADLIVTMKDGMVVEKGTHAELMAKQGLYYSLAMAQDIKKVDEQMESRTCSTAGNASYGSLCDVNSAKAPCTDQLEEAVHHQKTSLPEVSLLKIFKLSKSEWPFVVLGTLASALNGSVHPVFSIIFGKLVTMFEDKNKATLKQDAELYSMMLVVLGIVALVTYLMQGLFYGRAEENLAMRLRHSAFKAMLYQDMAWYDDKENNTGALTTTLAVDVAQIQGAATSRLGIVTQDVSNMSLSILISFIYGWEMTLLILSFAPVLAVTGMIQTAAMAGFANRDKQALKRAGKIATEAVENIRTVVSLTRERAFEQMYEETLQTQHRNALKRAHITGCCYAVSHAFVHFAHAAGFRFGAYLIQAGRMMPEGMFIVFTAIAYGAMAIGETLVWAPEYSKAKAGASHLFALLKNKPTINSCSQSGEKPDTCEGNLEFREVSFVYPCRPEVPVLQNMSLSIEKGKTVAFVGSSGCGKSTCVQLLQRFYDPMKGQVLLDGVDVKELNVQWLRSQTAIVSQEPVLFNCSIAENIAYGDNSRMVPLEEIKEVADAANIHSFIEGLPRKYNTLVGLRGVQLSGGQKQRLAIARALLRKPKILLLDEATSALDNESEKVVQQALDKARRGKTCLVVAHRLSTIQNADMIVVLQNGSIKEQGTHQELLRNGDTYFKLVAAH
Procedure: (§1) ELISA plates coated with PIP1, PIP2 or PIP3 were incubated with either purified recombinant human ABCB5 isoform 2 (812 aa, NCBI Reference Sequence: NP_848654.3), wildtype mouse Abcb5-expressing skin tissue, or Abcb5 non-expressing skin tissue derived from ABCB5 knockout mice (as a specificity control), followed by bound ABCB5 detection using a murine ABCB5-specific monoclonal antibody (Ksander et al Nature 2014). […] Similar results were obtained using the murine ABCB5 mAb clone 3C2-1D12 (Frank NY et al. J Biol Chem. 2003) as a detection antibody.

[5] = target: T4, recombinant human ABCB5 isoform 2 (Homo sapiens, UniProt Q2M3G0); experiment: ELISA: plates coated with PIP1, PIP2 or PIP3 incubated with recombinant human ABCB5 isoform 2; format: binding
T4 sequence (Q2M3G0 446-1257): T1 sequence (Q2M3G0 1-812 isoform Q2M3G0-1)
Procedure: as §1

inhibition of binding of PIP1, PIP2 or PIP3 to ABCB5 ([1]; increasing doses): competitively inhibit
concentration of apparent saturation of the inhibitory effect ([1]; inhibition of PIP1, PIP2 or PIP3 binding to ABCB5): 0.1 mM
Molecule: CCCCCCCC(=O)OCC(COP(=O)(O)OC1C(O)C(O)C(O)C(O)C1O)OC(=O)CCCCCCC (stereo not drawn) [PtdIns-(1,2-dioctanoyl)]

Molecule: CCCS(=O)(=O)Nc1ccc(F)c(C(=O)c2c[nH]c3ncc(-c4ccc(Cl)cc4)cc23)c1F [vemurafenib]
formation of vemurafenib-resistant tumors [2]: 100%

binding to ABCB5 by SPR (ABCB5 [3]): shown to bind
Molecule: CCCCCCCC(=O)OC[C@H](COP(=O)(O)O[C@@H]1[C@H](O)[C@H](O)[C@@H](OP(=O)(O)O)[C@H](OP(=O)(O)O)[C@H]1O)OC(=O)CCCCCCC [PI (4,5) P2, diC8]

co-precipitation of ABCB5 on lipid pulldown (ABCB5 [4]): co-precipitation of ABCB5 protein
binding to murine Abcb5 (murine Abcb5): bound
relative efficiency of binding to ABCB5 ([5]; PIP2 and PIP3 compared with PIP1): more efficient
binding to recombinant human ABCB5 ([5]; detection with ABCB5-specific monoclonal antibody): bound
binding to ABCB5 by SPR (ABCB5 [3]): binding
Molecule: PIP3
